In article PMC8799717, “Pharmacological targeting PIKfyve and tubulin as an effective treatment strategy for double-hit lymphoma” (Cell Death Discovery, 2022):

Key:
Assay in all cases: biochemical
Parameters in all cases: KINOMEscan active-site-directed competition binding panel, 468 kinases, percent of DMSO control at 1 uM
Conditions in all cases: KINOMEscan binding, percent of DMSO control; read-out: Ctrl%
[1] = target: T1, ABL1(E255K)-phosphorylated (Homo sapiens, UniProt P00519, E255K)
T1 construct: phosphorylated

[2] = target: T2, ABL1(F317L)-phosphorylated (Homo sapiens, UniProt P00519, F317L)
T2 construct: phosphorylated

ADCK4 = target: T3, ADCK4 (Homo sapiens, UniProt Q96D53)
T3 construct: gene COQ8B

ASK1 = target: T4, ASK1 (Homo sapiens, UniProt Q99683)
T4 construct: gene MAP3K5

CAMK1D = CAMK1D (Homo sapiens, UniProt Q8IU85)
Sequence of CAMK1D (Q8IU85 whole entry): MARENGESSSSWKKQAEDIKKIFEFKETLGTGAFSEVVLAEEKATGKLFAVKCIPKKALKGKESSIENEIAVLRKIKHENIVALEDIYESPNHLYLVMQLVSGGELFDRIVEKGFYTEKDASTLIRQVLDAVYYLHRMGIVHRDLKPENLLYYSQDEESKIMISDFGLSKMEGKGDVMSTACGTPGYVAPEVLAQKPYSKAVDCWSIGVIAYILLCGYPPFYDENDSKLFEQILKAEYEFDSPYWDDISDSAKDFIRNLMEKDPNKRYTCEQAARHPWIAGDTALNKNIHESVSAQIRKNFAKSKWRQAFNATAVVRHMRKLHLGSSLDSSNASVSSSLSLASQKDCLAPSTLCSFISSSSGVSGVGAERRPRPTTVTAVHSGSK

CDC2L5 = target: T5, CDC2L5 (Homo sapiens, UniProt Q14004)
T5 construct: gene CDK13
T5 sequence (Q14004 whole entry): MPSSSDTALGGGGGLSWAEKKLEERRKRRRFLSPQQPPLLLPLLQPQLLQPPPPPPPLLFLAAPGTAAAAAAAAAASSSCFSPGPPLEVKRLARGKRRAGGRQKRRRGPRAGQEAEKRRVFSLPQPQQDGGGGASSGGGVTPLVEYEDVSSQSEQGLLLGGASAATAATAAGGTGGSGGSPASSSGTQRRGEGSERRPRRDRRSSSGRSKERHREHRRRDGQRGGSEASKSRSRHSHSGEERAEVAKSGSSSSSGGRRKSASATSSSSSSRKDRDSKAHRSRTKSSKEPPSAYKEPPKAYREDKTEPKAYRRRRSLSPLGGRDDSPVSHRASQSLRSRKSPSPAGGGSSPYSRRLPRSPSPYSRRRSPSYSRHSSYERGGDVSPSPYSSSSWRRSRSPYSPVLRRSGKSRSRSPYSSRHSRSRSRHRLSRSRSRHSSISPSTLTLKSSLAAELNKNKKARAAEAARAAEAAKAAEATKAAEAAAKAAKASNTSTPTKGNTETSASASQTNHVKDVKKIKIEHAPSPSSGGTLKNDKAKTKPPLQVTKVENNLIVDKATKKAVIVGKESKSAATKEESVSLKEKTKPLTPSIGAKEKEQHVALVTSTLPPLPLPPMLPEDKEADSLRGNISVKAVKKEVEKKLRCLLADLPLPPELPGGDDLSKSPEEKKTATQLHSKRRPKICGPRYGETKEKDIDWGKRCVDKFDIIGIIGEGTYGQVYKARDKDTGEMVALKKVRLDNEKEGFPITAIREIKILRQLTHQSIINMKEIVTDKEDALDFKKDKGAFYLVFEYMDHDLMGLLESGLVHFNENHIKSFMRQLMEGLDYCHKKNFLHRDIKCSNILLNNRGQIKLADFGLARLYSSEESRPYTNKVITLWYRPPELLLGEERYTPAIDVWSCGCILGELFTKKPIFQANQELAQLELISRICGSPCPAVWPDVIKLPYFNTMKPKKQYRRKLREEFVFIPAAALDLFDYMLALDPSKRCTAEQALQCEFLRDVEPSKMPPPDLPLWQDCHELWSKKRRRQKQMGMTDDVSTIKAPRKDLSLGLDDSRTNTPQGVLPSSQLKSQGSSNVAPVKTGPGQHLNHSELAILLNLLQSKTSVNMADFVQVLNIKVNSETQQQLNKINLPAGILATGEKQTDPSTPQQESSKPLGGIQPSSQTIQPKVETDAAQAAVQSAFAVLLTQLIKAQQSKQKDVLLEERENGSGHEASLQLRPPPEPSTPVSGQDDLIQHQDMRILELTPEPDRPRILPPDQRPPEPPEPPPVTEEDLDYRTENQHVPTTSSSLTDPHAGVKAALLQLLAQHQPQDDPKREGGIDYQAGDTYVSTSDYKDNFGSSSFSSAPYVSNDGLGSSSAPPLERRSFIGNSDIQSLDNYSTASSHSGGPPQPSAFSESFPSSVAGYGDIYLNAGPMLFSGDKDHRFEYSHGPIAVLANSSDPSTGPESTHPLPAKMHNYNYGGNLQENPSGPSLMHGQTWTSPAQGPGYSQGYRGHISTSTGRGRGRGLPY

CDK4-cyclinD1 = target: T6, CDK4-cyclinD1 (Homo sapiens, UniProt P11802)
T6 construct: cyclinD1

CDK9 = CDK9 (Homo sapiens, UniProt P50750)
Sequence of CDK9 (P50750 whole entry): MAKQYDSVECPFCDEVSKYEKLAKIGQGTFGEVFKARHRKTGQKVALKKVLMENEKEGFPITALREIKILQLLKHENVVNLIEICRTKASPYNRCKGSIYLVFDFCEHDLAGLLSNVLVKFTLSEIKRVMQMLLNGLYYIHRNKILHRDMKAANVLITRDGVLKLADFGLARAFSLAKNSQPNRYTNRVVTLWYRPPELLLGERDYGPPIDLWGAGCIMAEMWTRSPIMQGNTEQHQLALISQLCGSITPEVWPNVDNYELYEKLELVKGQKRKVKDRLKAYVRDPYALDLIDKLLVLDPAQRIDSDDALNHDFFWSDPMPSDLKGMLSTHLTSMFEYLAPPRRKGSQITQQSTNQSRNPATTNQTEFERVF

[3] = target: EGFR(L747-E749del, A750P) (Homo sapiens, UniProt P00533, A750P/DEL747-749)
EPHA5 = EPHA5 (Homo sapiens, UniProt P54756)
Sequence of EPHA5 (P54756 whole entry): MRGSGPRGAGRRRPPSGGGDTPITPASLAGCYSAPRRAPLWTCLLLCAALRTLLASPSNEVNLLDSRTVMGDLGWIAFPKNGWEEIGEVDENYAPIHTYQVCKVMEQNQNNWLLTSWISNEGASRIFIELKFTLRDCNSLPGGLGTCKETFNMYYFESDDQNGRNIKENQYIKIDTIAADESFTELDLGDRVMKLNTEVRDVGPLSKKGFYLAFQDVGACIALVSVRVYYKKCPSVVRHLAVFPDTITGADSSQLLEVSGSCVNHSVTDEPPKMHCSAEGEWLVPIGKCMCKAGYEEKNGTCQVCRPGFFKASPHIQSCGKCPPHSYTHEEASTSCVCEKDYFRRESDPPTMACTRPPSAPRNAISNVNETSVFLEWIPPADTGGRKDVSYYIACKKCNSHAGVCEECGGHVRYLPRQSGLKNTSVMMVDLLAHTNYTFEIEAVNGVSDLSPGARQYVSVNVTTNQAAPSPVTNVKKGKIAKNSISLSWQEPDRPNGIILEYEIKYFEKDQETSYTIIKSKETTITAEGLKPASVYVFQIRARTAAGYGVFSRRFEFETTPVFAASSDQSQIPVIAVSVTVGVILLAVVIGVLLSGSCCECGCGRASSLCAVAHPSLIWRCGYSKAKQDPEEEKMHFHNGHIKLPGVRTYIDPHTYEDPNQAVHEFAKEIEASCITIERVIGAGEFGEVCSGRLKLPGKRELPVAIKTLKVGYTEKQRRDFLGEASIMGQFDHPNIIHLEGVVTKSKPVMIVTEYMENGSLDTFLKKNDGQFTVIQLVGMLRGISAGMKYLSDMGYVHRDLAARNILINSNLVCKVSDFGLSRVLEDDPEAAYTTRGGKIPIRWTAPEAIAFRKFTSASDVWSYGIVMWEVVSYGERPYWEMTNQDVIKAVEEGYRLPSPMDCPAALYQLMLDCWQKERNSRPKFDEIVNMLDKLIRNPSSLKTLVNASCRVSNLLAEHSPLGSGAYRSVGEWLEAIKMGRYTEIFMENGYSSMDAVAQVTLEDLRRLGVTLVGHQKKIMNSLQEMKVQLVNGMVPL

FLT3(K663Q) = FLT3(K663Q) (Homo sapiens, UniProt P36888, K663Q)
MAP3K2 = MAP3K2 (Homo sapiens, UniProt Q9Y2U5)
MST2 = target: T7, MST2 (Homo sapiens, UniProt Q13188)
T7 construct: gene STK3

NEK7 = NEK7 (Homo sapiens, UniProt Q8TDX7)
Sequence of NEK7 (Q8TDX7 whole entry): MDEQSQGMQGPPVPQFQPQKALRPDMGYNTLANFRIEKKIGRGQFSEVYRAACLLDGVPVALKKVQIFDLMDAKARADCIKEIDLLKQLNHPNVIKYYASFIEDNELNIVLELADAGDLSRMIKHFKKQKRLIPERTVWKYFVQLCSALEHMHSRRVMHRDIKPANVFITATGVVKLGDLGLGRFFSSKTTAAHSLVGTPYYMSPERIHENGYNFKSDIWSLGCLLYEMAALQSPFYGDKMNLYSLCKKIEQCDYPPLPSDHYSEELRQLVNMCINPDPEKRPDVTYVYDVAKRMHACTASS

PIK3CA(E545K) = PIK3CA(E545K) (Homo sapiens, UniProt P42336, E545K)
Sequence of PIK3CA(E545K) (P42336 whole entry E545K): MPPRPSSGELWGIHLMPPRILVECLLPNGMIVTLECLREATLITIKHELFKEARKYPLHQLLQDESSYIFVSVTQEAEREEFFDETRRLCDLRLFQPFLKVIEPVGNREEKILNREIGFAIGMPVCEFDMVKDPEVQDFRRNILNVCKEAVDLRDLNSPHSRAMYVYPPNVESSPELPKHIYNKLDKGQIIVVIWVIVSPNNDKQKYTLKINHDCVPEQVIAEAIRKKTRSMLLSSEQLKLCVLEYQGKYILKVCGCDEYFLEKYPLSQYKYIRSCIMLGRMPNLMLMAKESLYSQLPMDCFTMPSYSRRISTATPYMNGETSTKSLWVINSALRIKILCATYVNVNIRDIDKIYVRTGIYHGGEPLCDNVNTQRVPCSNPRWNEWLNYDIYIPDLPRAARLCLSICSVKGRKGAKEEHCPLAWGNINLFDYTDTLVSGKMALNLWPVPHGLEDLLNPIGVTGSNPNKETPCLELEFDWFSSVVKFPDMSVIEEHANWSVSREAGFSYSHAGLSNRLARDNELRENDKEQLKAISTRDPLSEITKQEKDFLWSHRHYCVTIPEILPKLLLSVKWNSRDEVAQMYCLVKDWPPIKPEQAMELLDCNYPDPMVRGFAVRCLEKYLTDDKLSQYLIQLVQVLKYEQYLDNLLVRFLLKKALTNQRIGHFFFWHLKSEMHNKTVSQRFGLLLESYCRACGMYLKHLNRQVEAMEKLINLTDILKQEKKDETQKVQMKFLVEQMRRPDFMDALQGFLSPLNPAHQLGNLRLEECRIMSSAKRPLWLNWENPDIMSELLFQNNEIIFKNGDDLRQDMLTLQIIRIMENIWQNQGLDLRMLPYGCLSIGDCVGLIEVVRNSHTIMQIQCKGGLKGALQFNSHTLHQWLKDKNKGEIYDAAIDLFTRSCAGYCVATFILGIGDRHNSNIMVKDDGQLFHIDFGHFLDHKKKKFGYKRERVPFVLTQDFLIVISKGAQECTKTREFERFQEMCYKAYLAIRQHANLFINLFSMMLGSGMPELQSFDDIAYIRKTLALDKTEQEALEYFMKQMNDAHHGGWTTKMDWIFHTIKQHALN

PIP5K1A = PIP5K1A (Homo sapiens, UniProt Q99755)
PLK4 = PLK4 (Homo sapiens, UniProt O00444)
PRKCH = PRKCH (Homo sapiens, UniProt P24723)
RIPK2 = RIPK2 (Homo sapiens, UniProt O43353)
SIK2 = SIK2 (Homo sapiens, UniProt Q9H0K1)
SgK110 = target: T8, SgK110 (Homo sapiens, UniProt P0C264)
T8 construct: gene SBK3
T8 sequence (P0C264 whole entry): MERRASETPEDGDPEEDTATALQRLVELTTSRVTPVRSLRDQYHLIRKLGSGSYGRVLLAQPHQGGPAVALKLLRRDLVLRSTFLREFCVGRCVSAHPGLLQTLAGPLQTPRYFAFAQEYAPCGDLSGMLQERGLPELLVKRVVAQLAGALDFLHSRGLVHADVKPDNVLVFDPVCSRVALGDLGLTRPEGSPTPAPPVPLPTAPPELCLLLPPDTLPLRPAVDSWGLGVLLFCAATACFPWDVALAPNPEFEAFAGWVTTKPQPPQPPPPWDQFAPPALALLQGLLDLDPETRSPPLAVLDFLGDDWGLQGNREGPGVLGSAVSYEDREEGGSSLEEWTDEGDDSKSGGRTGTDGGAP

TNK2 = TNK2 (Homo sapiens, UniProt Q07912)
TRPM6 = TRPM6 (Homo sapiens, UniProt Q9BX84)
VEGFR2 = target: T9, VEGFR2 (Homo sapiens, UniProt P35968)
T9 construct: gene KDR

## Cc1ccc(NC(=O)c2cccc(C(F)(F)F)c2)cc1Nc1cc(-c2cccnc2)nc2[nH]ccc12 [HZX-02-059]
[1]
  remaining binding at 1 µM: 77%
[2]
  remaining binding at 1 µM: 65%
ADCK4
  remaining binding at 1 µM: 91%
ASK1
  remaining binding at 1 µM: 93%
CAMK1D
  remaining binding at 1 µM: 100%
CDC2L5
  remaining binding at 1 µM: 100%
CDK4-cyclinD1
  remaining binding at 1 µM: 98%
CDK9
  remaining binding at 1 µM: 100%
[3]
  remaining binding at 1 µM: 77%
EPHA5
  remaining binding at 1 µM: 17%
FLT3(K663Q)
  remaining binding at 1 µM: 98%
MAP3K2
  remaining binding at 1 µM: 74%
MST2
  remaining binding at 1 µM: 97%
NEK7
  remaining binding at 1 µM: 73%
PIK3CA(E545K)
  remaining binding at 1 µM: 63%
PIP5K1A
  remaining binding at 1 µM: 79%
PLK4
  remaining binding at 1 µM: 91%
PRKCH
  remaining binding at 1 µM: 90%
RIPK2
  remaining binding at 1 µM: 100%
SIK2
  remaining binding at 1 µM: 87%
SgK110
  remaining binding at 1 µM: 100%
TNK2
  remaining binding at 1 µM: 98%
TRPM6
  remaining binding at 1 µM: 50%
VEGFR2
  remaining binding at 1 µM: 100%
